The text below walks through data of article PMC11288129, “Diversely evolved xibalbin variants from remipede venom inhibit potassium channels and activate PKA-II and Erk1/2 signaling” (BMC Biology, 2024).

Positions of bridges follow the written chain, without caps; N, C: chain ends. No end group written: not given here.

For this data set, the system named is rat DRG sensory neurons. As to the kind of experiment: Number of DRG neurons (cytotoxicity, high content imaging). The settings on record: also RAW264.7 and HMEC. In kind it is cell-based. Here is the method: We initially determined the cytotoxic effects of xibalbins on primary sensory neurons from adult male rats cultured in vitro [2]. […] We exposed overnight cultures of dissociated rat dorsal root ganglions (DRGs) to xibalbins for 5 and 30 min. Subsequently, all cells were fixed and immunocytochemically stained for the neuronal marker UCHL1 to identify neurons. The entire culture was digitally scanned using high content imaging (HCI) microscopy, and cell numbers, UCHL1 staining per cell, and cell size was analyzed. No loss of neurons was induced by either of the tested xibalbins, even at the highest concentration of 0.8 µg/µL (Additional File 3: Figure S2). […] We further investigated the potential toxicity of xibalbins in monocyte/macrophage-like cells (RAW264.7) and human microvascular endothelial cells (HMEC); see Additional File 5: Figure S4 The viability of RAW264.7 cells was detected using a formazan-based assay, while the proliferation of HMECs was assessed by measuring the number of crystal violet-stained cells.
Male Sprague Dawley rats (250–400 g, 8–16 weeks old) were obtained from Envigo. […]
Stained cells were scanned with a CX7-LZR (Thermo Fisher Scientific) HCI system. Images were acquired with a 10 × objective and analyzed using the cellomics software package (Thermo Fisher Scientific). […] The resulting objects were quantified for average object intensity in all other color channels. […]

Regarding “KRSCIRRFGRCDHRPNDCCYNSSCRCNLWGSNCRCQRMGLFQKWGK (disulfide 4-19, 11-24, 18-35, 26-33) [xib13]”, the “cytolytic or cytotoxic activity” value is recorded as “do not show overt cytolytic or cytotoxic activity”. In the case of “RLFCIRHHKYCGHRPKRCCSGLFCRCNTFGTNCRCQSKGALGKLI (disulfide 4-19, 11-24, 18-35, 26-33) [xib1]”, the “cytolytic or cytotoxic activity” value is “do not show overt cytolytic or cytotoxic activity”.
